# From ChEMBL document CHEMBL3217728, “Searching for innovative quinolone-like scaffolds: synthesis and biological evaluation of 2,1-benzothiazine 2,2-dioxide derivatives” (2012)
# Activity calls are given as the source filed them. No cut-off for these calls is given here.
# Legend:
# Staphylococcus aureus [1] = experiment: Antimicrobial activity against wild type Staphylococcus aureus ATCC 25923; format: functional
# Staphylococcus aureus [2] = experiment: Potentiation of ciprofloxacin-induced antibacterial effect against norA-deficient Staphylococcus aureus SA-K1902 at 0.78 to 100 ug/ml by isobologram based checkerboard assay; format: functional, organism-based
# Staphylococcus aureus [3] = experiment: Antimicrobial activity against norA-deficient Staphylococcus aureus SA-K1902; format: functional
# Staphylococcus aureus [4] = experiment: Potentiation of ciprofloxacin-induced antibacterial effect against wild type Staphylococcus aureus ATCC 25923 at 0.78 to 100 ug/ml by isobologram based checkerboard assay; format: functional, organism-based
# Staphylococcus aureus [5] = experiment: Antimicrobial activity against norA-overexpressing Staphylococcus aureus SA-K2378; format: functional
# [6] = target: T1, Quinolone resistance protein NorA (Staphylococcus aureus) (UniProt P0A0J7); experiment: Inhibition of NorA efflux pump in norA-overexpressing Staphylococcus aureus SA-K2378 assessed as reduction in ciprofloxacin MIC at 0.78 to 100 ug/ml by isobologram based checkerboard assay
# T1 sequence (whole entry): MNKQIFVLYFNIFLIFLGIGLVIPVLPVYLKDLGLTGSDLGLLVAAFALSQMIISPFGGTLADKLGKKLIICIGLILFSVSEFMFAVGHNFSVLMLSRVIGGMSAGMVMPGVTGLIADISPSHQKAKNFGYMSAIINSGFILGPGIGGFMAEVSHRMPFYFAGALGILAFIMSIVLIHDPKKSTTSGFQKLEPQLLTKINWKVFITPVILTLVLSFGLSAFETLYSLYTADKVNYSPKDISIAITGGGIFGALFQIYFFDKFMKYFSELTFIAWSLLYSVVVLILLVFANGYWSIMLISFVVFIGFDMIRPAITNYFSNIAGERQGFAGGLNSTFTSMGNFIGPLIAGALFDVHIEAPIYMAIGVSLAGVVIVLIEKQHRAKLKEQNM
# Staphylococcus aureus [7] = experiment: Antimicrobial activity against ciprofloxacin, methicillin-resistant Staphylococcus aureus 25A; format: functional
# [8] = target: T1, Quinolone resistance protein NorA (Staphylococcus aureus); experiment: Inhibition of NorA efflux pump in Staphylococcus aureus SA-1199B assessed as inhibition of EtBr efflux at 50 uM
# Enterococcus faecium [9] = experiment: Antibacterial activity against Enterococcus faecium ATCC 19433; format: functional
# [10] = Inhibition of DNA gyrase (unknown origin) by DNA super coiling assay
# Escherichia coli = experiment: Antimicrobial activity against Escherichia coli ATCC 25922; format: functional
# Enterococcus faecalis = experiment: Antibacterial activity against vancomycin-resistant Enterococcus faecalis 26A36; format: functional
# Klebsiella pneumoniae = experiment: Antimicrobial activity against Klebsiella pneumoniae ATCC 13833; format: functional
# Enterococcus faecium [11] = experiment: Antibacterial activity against ciprofloxacin, vancomycin-resistant Enterococcus faecium 26A23; format: functional
# [12] = system: Staphylococcus epidermidis; experiment: Antibacterial activity against Staphylococcus epidermidis ATCC 14990; format: functional
# Pseudomonas aeruginosa = experiment: Antimicrobial activity against Pseudomonas aeruginosa ATCC 27853; format: functional
# Staphylococcus aureus [13] = experiment: Antimicrobial activity against Staphylococcus aureus ATCC 25923; format: functional
# Staphylococcus aureus [14] = experiment: Antimicrobial activity against methicillin-sensitive Staphylococcus aureus 21A; format: functional
# Proteus mirabilis = experiment: Antimicrobial activity against Proteus mirabilis CCUG 26767; format: functional
# [15] = target: T1, Quinolone resistance protein NorA (Staphylococcus aureus); experiment: Inhibition of NorA efflux pump in norA-overexpressing Staphylococcus aureus SA-K2378 assessed as reduction in ciprofloxacin MIC at 50 ug/ml by isobologram based checkerboard assay
# [16] = target: T1, Quinolone resistance protein NorA (Staphylococcus aureus); experiment: Inhibition of NorA efflux pump in norA-overexpressing Staphylococcus aureus SA-K2378 assessed as reduction in ciprofloxacin MIC at 12.5 ug/ml by isobologram based checkerboard assay
SMILES,MIC (Staphylococcus aureus [1]),Activity (Staphylococcus aureus [2]),MIC (Staphylococcus aureus [3]),Activity (Staphylococcus aureus [4]),MIC (Staphylococcus aureus [5]),inhibition [6],MIC (Staphylococcus aureus [7]),inhibition [8],MIC (Enterococcus faecium [9]),inhibition [10],MIC (Escherichia coli),MIC (Enterococcus faecalis),MIC (Klebsiella pneumoniae),MIC (Enterococcus faecium [11]),MIC [12],MIC (Pseudomonas aeruginosa),MIC (Staphylococcus aureus [13]),MIC (Staphylococcus aureus [14]),MIC (Proteus mirabilis),also measured
COC(=O)[C@H]1[C@H]2C[C@@H]3c4[nH]c5cc(OC)ccc5c4CCN3C[C@H]2C[C@@H](OC(=O)c2cc(OC)c(OC)c(OC)c2)[C@@H]1OC [RESERPINE],> 100 µg/mL,inactive,> 100 µg/mL,inactive,> 100 µg/mL,Active,,,,,,,,,,,,,,
CNC(=O)C1=C(O)c2cc(N)c(N3CCN(C)CC3)cc2N(C2CC2)S1(=O)=O,,,,,,,> 128 µg/mL,2%,> 128 µg/mL,inactive,> 128 µg/mL,> 128 µg/mL,> 128 µg/mL,> 128 µg/mL,> 128 µg/mL,> 128 µg/mL,> 128 µg/mL,> 128 µg/mL,> 128 µg/mL,
CCOC(=O)C1(C)C(=O)c2cc(N)c(N3CCN(C)CC3)cc2N(C2CC2)S1(=O)=O (stereo unspecified),> 100 µg/mL,inactive,> 100 µg/mL,inactive,> 100 µg/mL,Dose-dependent effect,> 128 µg/mL,25%,> 128 µg/mL,inactive,> 128 µg/mL,> 128 µg/mL,> 128 µg/mL,> 128 µg/mL,> 128 µg/mL,> 128 µg/mL,> 128 µg/mL,> 128 µg/mL,> 128 µg/mL,fold change (FC) [15]: 4
Fc1ccc([C@@H]2CCNC[C@H]2COc2ccc3c(c2)OCO3)cc1 [PAROXETINE],> 100 µg/mL,inactive,> 100 µg/mL,inactive,> 100 µg/mL,Active,,,,,,,,,,,,,,
CN1CCN(c2cc3c(cc2N)C(=O)CS(=O)(=O)N3C2CC2)CC1,,,,,,,> 128 µg/mL,7%,> 128 µg/mL,inactive,> 128 µg/mL,> 128 µg/mL,> 128 µg/mL,> 128 µg/mL,> 128 µg/mL,> 128 µg/mL,> 128 µg/mL,> 128 µg/mL,> 128 µg/mL,
CCOC(=O)C1=C(O)c2cc(N)c(N3CCN(C)CC3)cc2N(C2CC2)S1(=O)=O,,,,,,,> 128 µg/mL,0%,> 128 µg/mL,inactive,> 128 µg/mL,> 128 µg/mL,> 128 µg/mL,> 128 µg/mL,> 128 µg/mL,> 128 µg/mL,> 128 µg/mL,> 128 µg/mL,> 128 µg/mL,
CC1C(=O)c2cc(N)c(N3CCN(C)CC3)cc2N(C2CC2)S1(=O)=O (stereo unspecified),> 100 µg/mL,inactive,> 100 µg/mL,inactive,> 100 µg/mL,Dose-dependent effect,> 128 µg/mL,27%,> 128 µg/mL,inactive,> 128 µg/mL,> 128 µg/mL,> 128 µg/mL,> 128 µg/mL,> 128 µg/mL,> 128 µg/mL,> 128 µg/mL,> 128 µg/mL,> 128 µg/mL,fold change (FC) [16]: 4
